Values joined by “and” are separate entries in the source; they are usually repeats but may differ in a detail not shown here. Equal values may be shown once. Read-outs that look alike come from different tables or passages of the source.
What was measured:
HIV-1 isolates = conditions: ref Link et al, Nature, 2020;[16]; read-out: EC50, human PBMCs, HIV-1 isolates; cited from earlier work
CA mutant M66I = conditions: ref Link et al, Nature, 2020;[16]; cited from earlier work
[1] = in vivo, sc; cited from earlier work
[2] = ref Link et al, Nature, 2020;[16]; cited from earlier work
HIV capsid = conditions: ref Link et al, Nature, 2020;[16]; cited from earlier work
[3] = ref Link et al, Nature, 2020;[16], cited from earlier work
CA mutant N74D = conditions: ref Link et al, Nature, 2020;[16]; cited from earlier work
[4] = ref Link et al, Nature, 2020;[16]; cited from earlier work; remark: listed apart in the source
SHIV-SF162P3 = experiment: microbe, parasite or virus in culture; format: cell-based, SHIV (in rhesus macaque, Macaca mulatta, PBMCs)
Method: Freshly isolated PBMCs from three male rhesus macaque (M. mulatta) donors of Indian origin (HumanCells Biosciences) were cultured in RPMI-1640 cell culture medium (Life Technologies) supplemented with 10% heat-inactivated FBS (Hyclone), 2 mM glutamine and 100 U ml^−1 penicillin plus 100 μg ml^−1 streptomycin (complete RPMI). Before their use in the antiviral assays, rhesus PBMCs from three independent donors were pooled and activated at a density of 3 × 10^6 cells per ml for 72 h at 37 °C by the addition of 1 μg ml^–1 phytohemagglutinin (PHA, Sigma-Aldrich) and 50 U ml^−1 recombinant human interleukin-2 (IL-2) (Roche Diagnostics).
PHA/IL-2-stimulated rhesus PBMCs were infected in bulk culture with SHIV-SF162P3 at a concentration of 130 pg of p27 equivalent per million PBMCs. The cells were maintained in suspension by gently rocking the cultures mixed with virus inoculum for 3 h at 37 °C. The cells were then pelleted by centrifugation at 500g for 5 min, washed twice with complete RPMI to remove any unadsorbed virus and seeded into 96-well plates at a cell density of 2 × 10^5 cells per well in 100 μl. […] The cultures were incubated in a 5% CO2 incubator at 37 °C for 7 days. Cell-free supernatants derived from the PBMC cultures were harvested 7 days after infection, the amount of SHIV present was quantified using an SIV p27 antigen-capture ELISA assay (5436, Advanced Bioscience Laboratories) performed according to the manufacturer’s protocol, and the data were acquired using SoftMax Pro 6.3.1 software (Molecular Devices).

[5] = molecular target: CA precursor (Gag polyprotein); conditions: ref Link et al, Nature, 2020;[16]; read-out: Binding Affinity (KD), CA precursor (Gag polyprotein); cited from earlier work
CA hexamer = conditions: ref Link et al, Nature, 2020;[16]; read-out: Binding Affinity (KD), CA hexamer; cited from earlier work
CA mutant L56I = conditions: ref Link et al, Nature, 2020;[16]; cited from earlier work
HIV-1 = conditions: cited from earlier work; for average LEN plasma concentration as multiple of human paEC95: 9 days after dose administration
CA monomer = conditions: ref Link et al, Nature, 2020;[16]; read-out: Binding Affinity (KD), CA monomer; cited from earlier work
CA pentamer = conditions: ref Link et al, Nature, 2020;[16]; read-out: Binding Affinity (KD), CA pentamer; cited from earlier work
[6] = single experiments n1–n7, SIV p27 ELISA day 7, read-out: SHIV162P3-rhPBMC-EC50, individual experiments

Structure (SMILES): CC(C)(C#Cc1ccc(-c2ccc(Cl)c3c(NS(C)(=O)=O)nn(CC(F)(F)F)c23)c([C@H](Cc2cc(F)cc(F)c2)NC(=O)Cn2nc(C(F)(F)F)c3c2C(F)(F)[C@@H]2C[C@H]32)n1)S(C)(=O)=O [LEN, Lenacapavir, reference compound]
- EC50 (HIV-1 isolates): 0.05 nM
- In vitro fold-resistance (CA mutant/wild-type), M66I (CA mutant M66I): >3,200
- duration of mean exposure of more than six times human paEC95 [1]: at least 6 months
- Predicted Hepatic Clearance, rate, primary human hepatocytes [2]: 0.17 mL/min/kg
- Inhibits nuclear import (early-stage) (HIV capsid): Yes
- Inhibits proper capsid assembly (late-stage) (HIV capsid): Yes
- Inhibits virus production (late-stage) (HIV capsid): Yes
- Kinetic solubility at pH 2.0 ([3]; pH 2.0): <1, <1 μM
- Kinetic solubility at pH 7.4 ([3]; pH 7.4): <1, <1 μM
- In vitro fold-resistance (CA mutant/wild-type), N74D (CA mutant N74D): 22
- T1/2, human cryopreserved hepatocytes [4]: 202 h
- EC50 (SHIV-SF162P3; Simian immunodeficiency virus, PBMC, in Macaca mulatta, 168 h, read-out: EC50, rhesus PBMCs, SHIV-SF162P3, mean of 7 assays, SIV p27 ELISA day 7 post-infection): 0.39 nM
- EC50 (SHIV-SF162P3; read-out: SHIV162P3-rhPBMC-EC50, individual experiments, single experiments n1–n7, SIV p27 ELISA day 7): 0.37 nM and 0.26 nM and 0.49 nM and 0.27 nM and 0.69 nM and 0.43 nM
- EC50 (SHIV-SF162P3; [6]): 0.23 nM
- Kd [5]: 1.1 nM
- Kd (CA hexamer): 0.24 nM
- In vitro fold-resistance (CA mutant/wild-type), L56I (CA mutant L56I): 239
- average LEN plasma concentration as multiple of human paEC95 (HIV-1; 20 mg dose): 0.7 times the human paEC95
- average LEN plasma concentration as multiple of human paEC95 (HIV-1; 50 mg dose): 1.1 times the human paEC95
- participants with capsid mutation Q67H detected (HIV-1; long-acting LEN monotherapy, phase 1b): 2 of 29
- maximum decline in HIV-1 RNA (HIV-1; long-acting formulation, after 9 days of monotherapy): 2.3 log10
- Kd (CA monomer): 2.5 nM
- Kd (CA pentamer): 0.22 nM

Structure (SMILES): O=C(NCc1c(F)cc(F)cc1F)c1cn2c(c(O)c1=O)C(=O)N1[C@H]3CC[C@H](C3)O[C@@H]1C2 [BIC, reference compound]
- EC50 (SHIV-SF162P3; mean of 7 assays, SIV p27 ELISA day 7 post-infection, read-out: EC50, rhesus PBMCs, SHIV-SF162P3): 1.34 nM
- EC50 (SHIV-SF162P3; [6]): 0.78 nM and 0.9 nM and 1.77 nM and 1.85 nM and 0.55 nM and 1.25 nM and 2.26 nM

— article PMC8753592, “Long-acting capsid inhibitor protects macaques from repeat SHIV challenges” (Nature, 2021)
